Laboratory results reported in patent US9796711B2, “Substituted pyrazolo[3,4-b]pyridin-6-carboxylic acids and method of use” (AbbVie S.àr.l., priority 2015, dated 2017).

How the values were obtained:
ΔF508-CFTR [1] = target: T1, ΔF508-CFTR (Homo sapiens, UniProt P13569, DEL508-508); assay: CFTR cell surface levels using HRP-tagged ΔF508-CFTR expressing CFBE cells, in the presence of a co-corrector; type: cell-based; details: HRP-tagged ΔF508-CFTR expressing CFBE cells, in the presence of 3 μM co-corrector; for EC50: read-out: EC50
T1 construct: host or cells: CFBE41o-, doxycycline-inducible
T1 sequence (P13569 with tags, fused parts or gaps DEL508-508): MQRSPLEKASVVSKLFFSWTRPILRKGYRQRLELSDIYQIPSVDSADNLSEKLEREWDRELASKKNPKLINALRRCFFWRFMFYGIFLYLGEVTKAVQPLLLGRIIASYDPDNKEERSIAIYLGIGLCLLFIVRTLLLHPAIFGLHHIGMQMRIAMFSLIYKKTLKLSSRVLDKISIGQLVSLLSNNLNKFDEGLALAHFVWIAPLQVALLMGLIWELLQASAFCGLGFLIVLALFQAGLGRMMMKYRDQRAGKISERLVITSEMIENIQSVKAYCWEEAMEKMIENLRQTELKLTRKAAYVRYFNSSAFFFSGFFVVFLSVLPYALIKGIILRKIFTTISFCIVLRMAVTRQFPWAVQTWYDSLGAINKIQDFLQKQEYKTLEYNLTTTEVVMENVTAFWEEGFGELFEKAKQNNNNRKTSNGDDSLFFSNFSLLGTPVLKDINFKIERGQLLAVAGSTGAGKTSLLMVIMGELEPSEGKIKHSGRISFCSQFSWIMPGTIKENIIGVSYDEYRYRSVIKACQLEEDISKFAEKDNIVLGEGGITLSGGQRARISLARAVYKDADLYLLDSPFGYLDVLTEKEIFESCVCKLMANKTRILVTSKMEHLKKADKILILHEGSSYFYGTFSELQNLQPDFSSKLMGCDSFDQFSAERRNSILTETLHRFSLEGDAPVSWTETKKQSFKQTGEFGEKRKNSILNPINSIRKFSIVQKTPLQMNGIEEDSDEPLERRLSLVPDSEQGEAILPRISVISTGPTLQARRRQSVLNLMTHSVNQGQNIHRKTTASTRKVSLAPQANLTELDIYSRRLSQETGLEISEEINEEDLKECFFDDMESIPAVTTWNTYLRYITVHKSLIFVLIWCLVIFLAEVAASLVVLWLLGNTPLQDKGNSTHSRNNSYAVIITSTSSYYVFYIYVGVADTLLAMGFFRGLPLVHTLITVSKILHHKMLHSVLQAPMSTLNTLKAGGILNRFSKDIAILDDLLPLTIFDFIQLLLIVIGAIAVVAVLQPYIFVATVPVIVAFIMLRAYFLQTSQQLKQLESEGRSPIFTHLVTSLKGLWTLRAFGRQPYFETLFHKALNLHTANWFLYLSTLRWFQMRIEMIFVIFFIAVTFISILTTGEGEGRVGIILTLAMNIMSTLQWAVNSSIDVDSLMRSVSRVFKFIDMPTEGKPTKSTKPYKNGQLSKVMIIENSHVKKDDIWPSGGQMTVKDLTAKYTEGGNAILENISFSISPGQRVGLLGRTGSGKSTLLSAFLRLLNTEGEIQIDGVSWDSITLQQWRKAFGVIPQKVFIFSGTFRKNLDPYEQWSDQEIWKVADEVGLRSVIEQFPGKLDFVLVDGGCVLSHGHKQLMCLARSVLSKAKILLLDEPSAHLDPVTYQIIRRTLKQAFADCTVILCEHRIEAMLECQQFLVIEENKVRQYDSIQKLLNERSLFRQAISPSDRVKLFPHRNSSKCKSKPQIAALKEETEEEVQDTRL
Procedure, shortened: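 Cells were seeded with 0.5 μg/mL doxycycline and held 68 h at 37 °C. Test compounds plus 3 μM co-corrector (final 0.1% DMSO) were then added for 20 h at 33 °C. Washed cells received HRP substrate, and luminescence was normalized between DMSO and 3 μM co-corrector controls.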

ΔF508-CFTR [2] = target: T1, ΔF508-CFTR; assay: CFTR cell surface levels using HRP-tagged ΔF508-CFTR expressing CFBE cells, intrinsic corrector capacity; type: cell-based; details: HRP-tagged ΔF508-CFTR CFBE41o- cells, compounds alone (intrinsic corrector capacity), 20 hours at 33° C.; for % Activation: positive control 3 μM corrector; for EC50: read-out: EC50
Procedure, shortened: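 Here the cells express ΔF508-CFTR with horseradish peroxidase inserted in extracellular loop 4, so only rescued channel at the surface gives luminescent signal. Compounds act on their own, 20 h at the reduced temperature of 33 °C; values are percent activity relative to DMSO and a 3 μM corrector.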

Row | SMILES | % Activation (ΔF508-CFTR [1]) | EC50 (ΔF508-CFTR [1]) | % Activation (ΔF508-CFTR [2]) | EC50 (ΔF508-CFTR [2])
1 | CC1CN(c2ccc(-c3cc(C(=O)O)nc4c3c(C(C)C)nn4C3CCCCC3)cn2)CC(C)O1 (stereo not shown) [compound 196, 1-cyclohexyl-4-[6-(2,6-dimethylmorpholin-4-yl)pyridin-3-yl]-3-(propan-2-yl)-1H-pyrazolo[3,4-b]pyridine-6-carboxylic acid] | 520.8% | 596 nM | 251.45% | 555 nM
2 | CC(C)c1nn(C2CCCCC2)c2nc(C(=O)O)cc(-c3ccc(N4CCOC(C)(C)C4)nc3)c12 [compound 197, 1-cyclohexyl-4-[6-(2,2-dimethylmorpholin-4-yl)pyridin-3-yl]-3-(propan-2-yl)-1H-pyrazolo[3,4-b]pyridine-6-carboxylic acid] | 445.2% | 432 nM | 219.25% | 644 nM
3 | Cc1nn(-c2ccccc2)c2nc(C(=O)O)cc(-c3ccc(N4CCCC(O)C4)cc3)c12 (stereo not shown) [compound 198, 4-[4-(3-hydroxypiperidin-1-yl)phenyl]-3-methyl-1-phenyl-1H-pyrazolo[3,4-b]pyridine-6-carboxylic acid] | 364% | 1010 nM | 220% | 1120 nM
4 | CC(C)c1nn(-c2cccc(N(C)C)c2)c2nc(C(=O)O)cc(-c3cnc(N4CCC(C#N)CC4)nc3)c12 [compound 199, 4-[2-(4-cyanopiperidin-1-yl)pyrimidin-5-yl]-1-[3-(dimethylamino)phenyl]-3-(propan-2-yl)-1H-pyrazolo[3,4-b]pyridine-6-carboxylic acid] | 602.4% | 917 nM | 356.9% | 1220 nM
5 | CC(C)c1nn(-c2cccc(N(C)C)c2)c2nc(C(=O)O)cc(-c3cnc(N(C)C4CCOCC4)nc3)c12 [compound 200, 1-[3-(dimethylamino)phenyl]-4-{2-[methyl(oxan-4-yl)amino]pyrimidin-5-yl}-3-(propan-2-yl)-1H-pyrazolo[3,4-b]pyridine-6-carboxylic acid] | 594.2% | 514 nM | 330.83% | 438 nM
6 | Cc1cccc(-n2nc(C(C)C)c3c(N4CCC5(CC4)COC5)cc(C(=O)O)nc32)c1 [compound 202, 1-(3-methylphenyl)-4-(2-oxa-7-azaspiro[3.5]nonan-7-yl)-3-(propan-2-yl)-1H-pyrazolo[3,4-b]pyridine-6-carboxylic acid] | 309.3% | 609 nM | 136.8% | 795 nM
7 | CC(C)c1nn(C2CCCCC2)c2nc(C(=O)O)cc(-c3ccc(N4CCC(C)(C#N)CC4)nc3)c12 [compound 203, 4-[6-(4-cyano-4-methylpiperidin-1-yl)pyridin-3-yl]-1-cyclohexyl-3-(propan-2-yl)-1H-pyrazolo[3,4-b]pyridine-6-carboxylic acid] | 361.75% | 756 nM | 162.5% | 843 nM
8 | CC(C)c1nn(-c2cccc(N3CCOCC3)c2)c2nc(C(=O)O)cc(-c3ccc(N4CCC(C#N)CC4)cc3)c12 [compound 206, 4-[4-(4-cyanopiperidin-1-yl)phenyl]-1-[3-(morpholin-4-yl)phenyl]-3-(propan-2-yl)-1H-pyrazolo[3,4-b]pyridine-6-carboxylic acid] | 661.63% | 246 nM | 466.87% | 323 nM
9 | CC(C)c1nn(-c2cccc(N(C)C)c2)c2nc(C(=O)O)cc(-c3ccc(N(C)C4CCOCC4)cc3)c12 [compound 207, 1-[3-(dimethylamino)phenyl]-4-{4-[methyl(oxan-4-yl)amino]phenyl}-3-(propan-2-yl)-1H-pyrazolo[3,4-b]pyridine-6-carboxylic acid] | 674.35% | 380 nM | 384.15% | 581 nM
10 | CC(C)c1nn(-c2cccc(N3CCOCC3)c2)c2nc(C(=O)O)cc(-c3ccc(N(C)C4CCOCC4)cc3)c12 [compound 208, 4-{4-[methyl(oxan-4-yl)amino]phenyl}-1-[3-(morpholin-4-yl)phenyl]-3-(propan-2-yl)-1H-pyrazolo[3,4-b]pyridine-6-carboxylic acid] | 673.2% | 647 nM | 413.75% | 603 nM
11 | COCCN(C)c1cc(C(=O)O)nc2c1c(C(C)C)nn2-c1cccc(C)c1 [compound 209, 4-[(2-methoxyethyl)(methyl)amino]-1-(3-methylphenyl)-3-(propan-2-yl)-1H-pyrazolo[3,4-b]pyridine-6-carboxylic acid] | 411.9% | 787 nM | 165.6% | 1360 nM
12 | Cc1cccc(-n2nc(C(C)C)c3c(N4CCC(F)(F)CC4)cc(C(=O)O)nc32)c1 [compound 210, 4-(4,4-difluoropiperidin-1-yl)-1-(3-methylphenyl)-3-(propan-2-yl)-1H-pyrazolo[3,4-b]pyridine-6-carboxylic acid] | 261% | 3340 nM | 66.65% | 1180 nM
13 | CC(C)c1nn(-c2cncc(N3CCOCC3)c2)c2nc(C(=O)O)cc(-c3ccc(N4CCOCC4)cc3)c12 [compound 211, 4-[4-(morpholin-4-yl)phenyl]-1-[5-(morpholin-4-yl)pyridin-3-yl]-3-(propan-2-yl)-1H-pyrazolo[3,4-b]pyridine-6-carboxylic acid] | 289.75% | 1090 nM | 94.07% | 2170 nM
14 | COC1CN(c2cc(C(=O)O)nc3c2c(C(C)C)nn3-c2cccc(C)c2)C1 [compound 212, 4-(3-methoxyazetidin-1-yl)-1-(3-methylphenyl)-3-(propan-2-yl)-1H-pyrazolo[3,4-b]pyridine-6-carboxylic acid] | 386.9% | 1490 nM | 139.7% | 2640 nM
15 | CO[C@@H]1CCC[C@@H](n2nc(C(C)C)c3c(-c4ccc(N5CCOCC5)cc4)cc(C(=O)O)nc32)C1 [compound 214, 1-[(1R,3R)-3-methoxycyclohexyl]-4-[4-(morpholin-4-yl)phenyl]-3-(propan-2-yl)-1H-pyrazolo[3,4-b]pyridine-6-carboxylic acid] | 323% | 609 nM | 154% | 820 nM
16 | Cc1cccc(-n2nc(C(C)C)c3c(N4CCC(C(F)(F)F)C4)cc(C(=O)O)nc32)c1 (stereo not shown) [compound 215, 1-(3-methylphenyl)-3-(propan-2-yl)-4-[3-(trifluoromethyl)pyrrolidin-1-yl]-1H-pyrazolo[3,4-b]pyridine-6-carboxylic acid] | 347.15% | 915 nM | 165.95% | 1030 nM
17 | Cc1cccc(-n2nc(C(C)C)c3c(N4CC5CN(C(=O)OC(C)(C)C)CC5C4)cc(C(=O)O)nc32)c1 (stereo not shown) [compound 216, 4-[5-(tert-butoxycarbonyl)hexahydropyrrolo[3,4-c]pyrrol-2(1H)-yl]-1-(3-methylphenyl)-3-(propan-2-yl)-1H-pyrazolo[3,4-b]pyridine-6-carboxylic acid] | 431.7% | 1110 nM | 161% | 1010 nM
18 | Cc1nn(-c2ccccc2)c2nc(C(=O)O)cc(-c3ccc(N4CCC(N(C)C)C4)cc3)c12 (stereo not shown) [compound 217, 4-{4-[3-(dimethylamino)pyrrolidin-1-yl]phenyl}-3-methyl-1-phenyl-1H-pyrazolo[3,4-b]pyridine-6-carboxylic acid] | 342.3% | 1470 nM | 129.7% | 1520 nM
19 | Cc1cccc(-n2nc(C(C)C)c3c(N4CCC(C#N)C4)cc(C(=O)O)nc32)c1 (stereo not shown) [compound 218, 4-(3-cyanopyrrolidin-1-yl)-1-(3-methylphenyl)-3-(propan-2-yl)-1H-pyrazolo[3,4-b]pyridine-6-carboxylic acid] | 380.9% | 933 nM | 169.4% | 2310 nM
20 | N#CC1CCN(c2ccc(-c3cc(C(=O)O)nc4c3c(C3CCC3)nn4C3CCCCC3)cc2)CC1 [compound 219, 4-[4-(4-cyanopiperidin-1-yl)phenyl]-3-cyclobutyl-1-cyclohexyl-1H-pyrazolo[3,4-b]pyridine-6-carboxylic acid] | 474.5% | 365 nM | 248.7% | 518 nM
21 | CC(C)c1nn(-c2cccc(N3CCCC3)c2)c2nc(C(=O)O)cc(-c3ccc(N4CCC(C#N)CC4)cc3)c12 [compound 221, 4-[4-(4-cyanopiperidin-1-yl)phenyl]-3-(propan-2-yl)-1-[3-(pyrrolidin-1-yl)phenyl]-1H-pyrazolo[3,4-b]pyridine-6-carboxylic acid] | 645.97% | 283 nM | 429% | 315 nM
22 | CC(C)c1nn(C2CCCCC2)c2nc(C(=O)O)cc(-c3ccc(N4CCCC(F)C4)nc3)c12 (stereo not shown) [compound 223, 1-cyclohexyl-4-[6-(3-fluoropiperidin-1-yl)pyridin-3-yl]-3-(propan-2-yl)-1H-pyrazolo[3,4-b]pyridine-6-carboxylic acid] | 484.45% | 687 nM | 246.95% | 714 nM
